Test results taken from article PMC9685055, “Biological activity of new bioactive steroids deriving from biotransformation of cortisone” (Microbial Cell Factories, 2022).

Columns and labels:
cyclooxygenase (COX) = target: T1, cyclooxygenase (COX) (Ovis aries, UniProt P05979); assay: Cyclooxygenase inhibitory assay (fluorescence COX activity kit); assay type: biochemical; conditions: purified COX preparation, 0.1, 1, 10 and 100 µM, 5 min at 25 °C
T1 construct: purchased Cayman 700200
T1 sequence (P05979 25-600): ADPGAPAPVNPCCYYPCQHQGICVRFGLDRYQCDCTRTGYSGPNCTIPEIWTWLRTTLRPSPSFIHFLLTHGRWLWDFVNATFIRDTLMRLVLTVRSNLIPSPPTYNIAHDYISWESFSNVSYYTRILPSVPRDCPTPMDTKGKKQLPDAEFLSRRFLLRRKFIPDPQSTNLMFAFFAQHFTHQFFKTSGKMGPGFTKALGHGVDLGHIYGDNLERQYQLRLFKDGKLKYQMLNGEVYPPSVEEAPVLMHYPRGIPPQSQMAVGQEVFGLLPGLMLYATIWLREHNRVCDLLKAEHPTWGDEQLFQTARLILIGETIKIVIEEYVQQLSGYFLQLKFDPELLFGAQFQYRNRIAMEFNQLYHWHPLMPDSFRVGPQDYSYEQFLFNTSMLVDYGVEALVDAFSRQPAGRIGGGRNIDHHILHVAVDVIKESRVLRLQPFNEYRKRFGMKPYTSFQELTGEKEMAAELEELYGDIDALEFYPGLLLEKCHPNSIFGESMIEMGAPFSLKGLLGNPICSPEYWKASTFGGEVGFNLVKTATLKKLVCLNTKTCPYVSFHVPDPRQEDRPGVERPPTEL
Method: Cyclooxygenase (COX) activity assay was determined by using a fluorescence COX activity assay kit (Cayman, No. 700200) for detecting COX-1 and COX-2 activity in purified enzyme and tissue homogenate preparations. The assay was conducted by monitoring the appearance of fluorescent compound resofurin in accordance to the supplier recommendation. Aspirin (acetylsalicylic acid; 50 µM) served as positive control. The test compounds were dissolved in 1–2% DMSO (v/v) at 4 different concentrations (0.1, 1, 10 and 100 µM) and added to a purified COX preparation. A 1–2% DMSO solution was added to control plates. The plates were shaken for a few seconds and incubated for 5 min at 25 °C. The fluorescence was measured by using an excitation wavelength of 540 nm and an emission wavelength of 590 nm. Average fluorescent values were calculated for all the samples (n = 3/group) in order to determine the percentage of inhibition in respect to control (i.e. untreated) plates.

[1] = target: T2, human glucocorticoid receptor (NR3C1) (Homo sapiens, UniProt P04150); assay: Glucocorticoid receptor transactivation reporter assay; assay type: cell-based; conditions: 10 µM, 24 h, luciferase reporter cells
T2 construct: constitutive high-level expression of full length, unmodified human glucocorticoid receptor (NR3C1)
T2 sequence (P04150 1-777): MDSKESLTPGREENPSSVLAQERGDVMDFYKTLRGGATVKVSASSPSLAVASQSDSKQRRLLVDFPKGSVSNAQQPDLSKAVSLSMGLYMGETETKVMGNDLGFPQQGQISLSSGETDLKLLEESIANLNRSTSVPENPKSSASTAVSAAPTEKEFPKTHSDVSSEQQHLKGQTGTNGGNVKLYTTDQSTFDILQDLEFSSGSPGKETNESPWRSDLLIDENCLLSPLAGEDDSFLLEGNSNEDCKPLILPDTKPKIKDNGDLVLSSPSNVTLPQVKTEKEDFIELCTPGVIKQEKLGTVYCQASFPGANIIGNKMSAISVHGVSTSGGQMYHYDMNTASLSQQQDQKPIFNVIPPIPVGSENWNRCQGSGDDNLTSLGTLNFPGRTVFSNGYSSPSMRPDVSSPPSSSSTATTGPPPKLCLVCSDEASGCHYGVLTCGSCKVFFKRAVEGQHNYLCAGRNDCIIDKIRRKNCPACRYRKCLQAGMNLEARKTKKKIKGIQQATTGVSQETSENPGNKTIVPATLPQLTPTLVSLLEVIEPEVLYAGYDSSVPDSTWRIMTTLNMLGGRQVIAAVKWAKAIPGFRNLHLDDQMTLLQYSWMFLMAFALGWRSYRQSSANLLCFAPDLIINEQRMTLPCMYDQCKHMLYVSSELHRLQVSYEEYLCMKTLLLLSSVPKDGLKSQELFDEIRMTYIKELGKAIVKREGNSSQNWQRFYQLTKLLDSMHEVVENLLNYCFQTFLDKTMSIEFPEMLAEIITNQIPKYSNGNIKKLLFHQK
Method: Glucocorticoid receptor transactivation assays kit was obtained from Indigo Biosciences (Human Glucocorticoid Receptor Reporter Assay Kit, Product #IB0020-32; Indigo Biosciences, State College, PA, USA) and was utilized to assess the activation of human glucocorticoid receptor by SCA and/or SCB. Briefly, stocks of the tested compounds were prepared and diluted in a medium provided by the manufacturer. Frozen reporter cells provided in the assay kit were thawed and compound dilutions were added immediately. Cells were incubated for 24 h and the activation response was measured on a luminometer (Perkin-Elmer, MA, USA). The cells consisted of non-human mammalian cells engineered by Indigo Biosciences to provide constitutive high-level expression of full length, unmodified human glucocorticoid receptor (NR3C1). The nonhuman mammalian reporter cells included a luciferase reporter gene functionally linked to a human glucocorticoid receptor-responsive promoter. The cells are engineered so that only interactions with the human receptor will induce luciferase expression in the treated reporter cells to quantitate nuclear receptor activation. Positive control ligand performance was measured by the manufacturer and provided in the technical manuals thus allowing accurate comparison for assay performance. […]

| Compound | effect on COX activity (cyclooxygenase (COX)) | glucocorticoid receptor activation [1] |
| --- | --- | --- |
| Cc1ccc(O)c2c1CCC1C3CC[C@](O)(C(=O)CO)[C@@]3(C)CC(=O)[C@@]21O (stereo partly drawn) [SCA, 1,9β,17,21‐tetrahydoxy‐4‐methyl‐19‐nor‐9β‐pregna‐1,3,5(10)‐trien‐11,20‐dione] | barely affected COX activity only at the lower concentration tested (0.1 µM) | activated glucocorticoid receptors |
| Cc1ccc(O)c2c1CCC1C3CC[C@](O)([C@H](O)CO)[C@@]3(C)CC(=O)[C@@]21O (stereo partly drawn) [SCB, 1,9β,17,20β,21‐ pentahydoxy‐4‐methyl‐19‐nor‐9β‐pregna‐1,3,5(10)‐trien‐11‐one] | inhibited COX activity at all concentrations tested in a dose-dependent trend | activated glucocorticoid receptors |
